According to patent US10107798B2, “Methods of chemotype evolution” (SUNESIS PHARMACEUTICALS, INC., priority 2008, dated 2018):
Several values for one entry are separate records, joined by “and”; a condition that tells them apart may be missing. Identical values can stand only once.

Target: T1, Humanized mouse Aurora A (amino acids 107-403) (Mus musculus, UniProt P97477)
T1 sequence (P97477 1-395 N164G/K218R/M280L): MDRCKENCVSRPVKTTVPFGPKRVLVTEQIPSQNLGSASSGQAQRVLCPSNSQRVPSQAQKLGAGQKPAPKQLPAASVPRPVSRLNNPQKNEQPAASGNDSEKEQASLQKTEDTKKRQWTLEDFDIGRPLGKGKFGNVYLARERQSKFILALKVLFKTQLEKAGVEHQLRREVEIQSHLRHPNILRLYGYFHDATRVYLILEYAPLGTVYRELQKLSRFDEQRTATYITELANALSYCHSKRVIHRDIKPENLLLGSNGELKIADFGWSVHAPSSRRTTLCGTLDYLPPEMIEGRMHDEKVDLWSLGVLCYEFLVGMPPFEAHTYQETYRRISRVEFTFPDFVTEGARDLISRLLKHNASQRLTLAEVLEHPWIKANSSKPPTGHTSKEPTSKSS
Experiment: Aurora A kinase assay (IMAP fluorescence polarization, FAM-PKAtide, 10 μM ATP)
Assay type: biochemical
Conditions: Table 1; disulfide chemistry: bait, fragments, unpurified reaction mixtures and purified ligand; relative to concentration of fragment molecule; read-out: IC50
Method: Aurora A Kinase Assay: Humanized mouse Aurora A (amino acids 107-403) was expressed in E. coli as described herein. […] The kinase reaction was initiated by adding Aurora A at a final concentration of 0.3 nM and incubated at 21° C. for 30 min. As a positive control for enzyme activity, the reaction mixture was added to DMSO and as a negative control for enzyme activity, the reaction mixture was added to Compound 1 at a final concentration of 5 μM. Both control reactions were conducted in triplicate. To detect phosphorylated PKAtide, the kinase reaction was combined with Progressive Binding Solution (1:400 Progressive Binding Reagent, 1× Buffer A, Molecular Devices) in a 1:3 ratio. The mixture was incubated for 30 min at 25° C. and the plate was scanned on an Analyst AD with excitation at 485 nm and emission at 530 nm. The fluorescence polarization value “P” is defined by equation (1) below, where “Fpar” is the fluorescence intensity parallel to the excitation plane and “Fperp” is the fluorescence intensity perpendicular to the excitation plane. The value “mP” was generated by multiplying the P value for each reaction well by a factor of 1000. The percent relative enzymatic activity (“Y” values) was calculated by normalizing the mP value for each well to the average positive control. Relative enzymatic activity values were plotted as a function of the logarithm of compound concentration (“x”) and […] values were generated in GraphPad Prism software version 4.01 using Equation (2), where “x” is the logarithm of compound concentration and “Top”, “Bottom” and “HillSlope” are curve parameters calculated by the software. IC50 values were calculated as the concentration of compound at which enzymatic activity is 50%.
Fragment Library Pilot Screen. Fragment molecule plates were screened in 96-well plates at 5 μM in single-point format in the Aurora A Kinase assay as described above. All reaction mixtures resulting in greater than or equal to 50% inhibition of enzymatic activity were then tested in an IC50 assay. Original screening samples were used for follow-up IC50 experiments. LC/MS analysis was conducted on fragment assembly screening plates to confirm presence of desired test ligand in the reaction mixture. Confirmed hits were then resynthesized as purified thioether compounds and tested in an IC50 assay.

**Q.** For `O=C(NCCSSCCNc1ncnc2ccsc12)Nc1cccc(C(F)(F)F)c1` [Compound 3], which IC50 is on record?
**A.** Its IC50 is 1.6 µM.

**Q.** `SCCNc1ncnc2ccsc12` [Compound 4] was tested. Which IC50 did it give?
**A.** The IC50 was 24 µM.

**Q.** For `NCCSSCCNC(=O)Nc1cccc(C(F)(F)F)c1` [Compound 5], which IC50 is on record?
**A.** Its IC50 is 30 µM.

**Q.** `NCCSSCCN` [Cystamine, reference compound] was tested. Which IC50 did it give?
**A.** The IC50 was 55 µM.

Same assay, conditions: Table 2; thioether chemistry: bait, test fragment, unpurified reaction mixtures and purified ligand; relative to concentration of fragment molecule; read-out: IC50

**Q.** How did the IC50 turn out when `Clc1ncnc2ccsc12` [Compound 7] was run?
**A.** Its IC50 is 28 µM.

**Q.** With `NCCSSCCc1cnc(NC(=O)Nc2cccc(C(F)(F)F)c2)s1` [Compound 8] as the compound, how does the IC50 read?
**A.** Its IC50 is 10 µM and 12.2 µM.

**Q.** For `NCCSSCCN` [Cystamine, reference compound], which IC50 is on record?
**A.** The IC50 was greater than 500 µM.

Same assay, conditions: Table 4; purified resynthesized molecule; read-out: Resynthesized Hit/Analog IC50

**Q.** `COc1ccc(C(=O)Nc2ccccc2)cc1NC(=O)CCSc1ncnc(N)c1Br` [Compound 15] was tested. Which IC50 did it give?
**A.** The IC50 was 0.12 µM.

**Q.** Which IC50 does the source give for `COc1ccc(C(=O)Nc2ccccc2)cc1NC(=O)CCSCc1cnc2[nH]ccc2c1` [Compound 16] here?
**A.** The IC50 was 0.15 µM.

**Q.** For `O=C(NCCSc1ncnc2[nH]ccc12)Nc1ccc(C(=O)O)c(O)c1` [Compound 17], which IC50 is on record?
**A.** Its IC50 is 0.4 µM.

**Q.** Which IC50 does the source give for `Nc1ncnc(NCCc2cnc(NC(=O)Nc3cccc(C(F)(F)F)c3)s2)c1Br` [Compound 18] here?
**A.** Its IC50 is 0.005 µM.

Same assay, conditions: Table 5; bait, fragment and disulfide-assembled molecules; relative to concentration of fragment molecule; read-out: IC50

**Q.** How did the IC50 turn out when `CCCCNC(=O)c1cccc(NC(=O)CSSCCN)c1` [Compound 20] was run?
**A.** The IC50 was greater than 50 µM.

**Q.** For `CCCCNC(=O)c1cccc(NC(=O)CCCCCNc2ncnc3ccsc23)c1` [Compound 21], which IC50 is on record?
**A.** Its IC50 is 4.1 µM.

**Q.** `NCCSSCCNC(=O)c1sc(C(F)(F)F)cc1O` [Compound 22] was tested. Which IC50 did it give?
**A.** Its IC50 is greater than 50 µM.

**Q.** With `O=C(NCCCCCNc1ncnc2ccsc12)c1sc(C(F)(F)F)cc1O` [Compound 23] as the compound, how does the IC50 read?
**A.** Its IC50 is 11.5 µM.

Same assay, conditions: thioether chemistry; product mixture and purified compound; read-out: IC50

**Q.** `O=C(Nc1cccc(C(F)(F)F)c1)Nc1ncc(CCSc2ncnc3ccsc23)s1` [Compound 6, reference compound] was tested. Which IC50 did it give?
**A.** Its IC50 is 0.005 µM.

Target: T2, ALK (Invitrogen PV3867) (Homo sapiens, UniProt Q9UM73)
T2 construct: purchased Invitrogen PV3867
T2 sequence (Q9UM73 1058-1620 limits assumed): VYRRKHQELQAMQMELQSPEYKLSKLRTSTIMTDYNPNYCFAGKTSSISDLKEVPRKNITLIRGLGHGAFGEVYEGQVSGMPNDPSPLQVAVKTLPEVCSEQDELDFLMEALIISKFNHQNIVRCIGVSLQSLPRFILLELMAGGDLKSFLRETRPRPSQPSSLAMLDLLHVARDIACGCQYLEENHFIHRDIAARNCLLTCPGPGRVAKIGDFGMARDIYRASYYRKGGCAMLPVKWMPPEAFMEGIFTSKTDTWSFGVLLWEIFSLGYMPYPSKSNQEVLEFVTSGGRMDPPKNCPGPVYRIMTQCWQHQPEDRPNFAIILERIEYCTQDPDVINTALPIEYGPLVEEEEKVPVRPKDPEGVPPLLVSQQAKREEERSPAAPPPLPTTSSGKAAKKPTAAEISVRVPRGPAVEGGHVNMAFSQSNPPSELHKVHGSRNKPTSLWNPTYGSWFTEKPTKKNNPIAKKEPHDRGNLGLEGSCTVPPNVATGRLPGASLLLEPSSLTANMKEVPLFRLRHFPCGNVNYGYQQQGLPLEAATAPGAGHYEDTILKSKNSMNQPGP
Experiment: ALK kinase assay (LanthaScreen time-resolved FRET, 10 μM ATP)
Assay type: biochemical
Conditions: Table 7; hit fragment alone, no bait; read-out: Fragment IC50
Method: ALK kinase assays were conducted using the LanthaScreen® time-resolved FRET assay format (Invitrogen, Carlsbad Calif.). Assay conditions consisted of 15 pM (picomolar) ALK (Invitrogen PV3867), 10 μM ATP, and 100 nM substrate peptide FL-polyGT (Invitrogen PV3610) diluted in assay buffer (10 mM Tris pH 7.2, 10 mM MgCl, 1 mM DTT, 100 μM Na2OVO4. 0.01% Triton® X-100, 0.05% Casein). Control compounds and fragment-assembly reaction mixtures were diluted in DMSO to generate stock compounds at 20-fold final concentration. For IC50 assays, fragment-assembly reaction mixtures were titrated three-fold in DMSO and diluted 20-fold into the assay mixture. As a positive control for enzyme activity, the reaction mixture was added to DMSO, and, as a negative control for enzyme activity, the reaction mixture was added to staurosporine (Sigma) at a final concentration of 20 μM.
Fragment Library Pilot Screen. Fragment-assembly reaction mixtures were screened in 384-well plates at a concentration approximating 5-fold lower than that of the purine-mimetic bait fragment IC50 value, in single-point format in the ALK assay as described above. Reaction mixtures resulting in greater than or equal to 50% inhibition of enzymatic activity were then confirmed in single-point format, or tested in an IC50 assay. LC/MS analysis was conducted on fragment assembly screening plates to confirm the presence of desired test ligand in the reaction mixture.

**Q.** Which IC50 does the source give for `O=C(CS)Nc1ccc(Cl)cc1C(F)(F)F` here?
**A.** Its IC50 is 1.62 µM.

**Q.** `COc1cccc(C)c1NC(=O)NCCS` was tested. Which IC50 did it give?
**A.** The IC50 was 6.64 µM.

**Q.** `O=C(CS)N1CCCN(c2nc3ccc(Cl)cc3s2)CC1` [Compound 32] was tested. Which IC50 did it give?
**A.** Its IC50 is 2 µM.

Same assay, conditions: read-out: IC50

**Q.** For `COc1ccccc1Nc1ncc(Cl)c(NCCS)n1` [Compound 26], which IC50 is on record?
**A.** Its IC50 is 0.5 µM.

**Q.** With `CC(C)S(=O)(=O)c1ccccc1Nc1nc(NCCS)ncc1Cl` [Compound 27] as the compound, how does the IC50 read?
**A.** Its IC50 is 0.25 µM.

**Q.** For `CNc1ncc(Cl)c(Nc2cccc(CCl)c2)n1` [Compound 28], which IC50 is on record?
**A.** Its IC50 is 3.75 µM.

**Q.** Which IC50 does the source give for `CNc1ncc(Cl)c(CCl)n1` [Compound 29] here?
**A.** The IC50 was 7.8 µM.

Target: T3, Aurora A (Homo sapiens, UniProt O14965)
T3 sequence (O14965 1-403): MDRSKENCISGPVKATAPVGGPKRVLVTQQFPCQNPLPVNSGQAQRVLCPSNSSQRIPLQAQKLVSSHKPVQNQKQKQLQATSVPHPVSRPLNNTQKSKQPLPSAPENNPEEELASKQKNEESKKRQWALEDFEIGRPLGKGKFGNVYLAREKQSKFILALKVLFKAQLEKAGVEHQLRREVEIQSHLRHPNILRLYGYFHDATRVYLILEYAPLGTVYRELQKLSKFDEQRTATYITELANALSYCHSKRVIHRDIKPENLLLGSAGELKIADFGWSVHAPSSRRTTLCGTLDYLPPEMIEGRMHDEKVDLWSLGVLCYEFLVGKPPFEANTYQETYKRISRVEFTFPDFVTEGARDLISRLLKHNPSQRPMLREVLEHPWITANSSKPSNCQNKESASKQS
Experiment: Aurora A activity in cell based assays
Conditions: inhibition of Aurora A activity in cell based assays

**Q.** How did the EC50 turn out when `COc1ccc(C(=O)Nc2ccccc2)cc1NC(=O)CCSc1ncnc(N)c1Br` [Compound 15] was run?
**A.** Its EC50 is 1 µM.

**Q.** How did the EC50 turn out when `Nc1ncnc(NCCc2cnc(NC(=O)Nc3cccc(C(F)(F)F)c3)s2)c1Br` [Compound 18] was run?
**A.** The EC50 was 0.05 µM.
